Laboratory results from ChEMBL document CHEMBL1150461, “Synthesis of new 3-thiosubstituted carbacephem antibiotics and their activity against penicillin resistant Streptococcus pneumoniae” (1997).
Values after ≈ are worked out from the molar mass of the structure shown.

Columns and labels:
Assay type in all cases: functional
Streptococcus pneumoniae [1] = assay: In vitro minimum inhibitory concentration against penicillin intermediate Streptococcus pneumoniae strains (number of strains = 3).
Streptococcus pneumoniae [2] = assay: In vitro minimum inhibitory concentration against penicillin susceptible Streptococcus pneumoniae strains (number of strains = 3).
Streptococcus pneumoniae [3] = assay: In vitro minimum inhibitory concentration against penicillin resistant Streptococcus pneumoniae strains (PRSP) (number of strains = 5).

Structure (SMILES): N[C@@H](C(=O)N[C@@H]1C(=O)N2C(C(=O)O)=C(Sc3ccncc3)CC[C@H]12)c1ccccc1
- MIC (Streptococcus pneumoniae [1]): 0.25 µg/mL (≈ 0.589 µM)
- MIC (Streptococcus pneumoniae [2]): 0.12 µg/mL (≈ 0.283 µM)
- MIC (Streptococcus pneumoniae [3]): 4 µg/mL (≈ 9.42 µM)

Structure (SMILES): N[C@@H](C(=O)N[C@@H]1C(=O)N2C(C(=O)O)=C(Sc3ccccc3CO)CC[C@H]12)c1ccccc1
- MIC (Streptococcus pneumoniae [1]): 2 µg/mL (≈ 4.41 µM)
- MIC (Streptococcus pneumoniae [2]): 0.06 µg/mL (≈ 0.132 µM)
- MIC (Streptococcus pneumoniae [3]): 4 µg/mL (≈ 8.82 µM)

Structure (SMILES): Nc1nnc(SC2=C(C(=O)O)N3C(=O)[C@@H](NC(=O)[C@H](N)c4ccccc4)[C@H]3CC2)s1
- MIC (Streptococcus pneumoniae [1]): 0.5 µg/mL (≈ 1.12 µM)
- MIC (Streptococcus pneumoniae [2]): 0.06 µg/mL (≈ 0.134 µM)
- MIC (Streptococcus pneumoniae [3]): 2 µg/mL (≈ 4.48 µM)

Structure (SMILES): Cn1ccnc1SC1=C(C(=O)O)N2C(=O)[C@@H](NC(=O)[C@H](N)c3ccccc3)[C@H]2CC1
- MIC (Streptococcus pneumoniae [1]): 8 µg/mL (≈ 18.7 µM)
- MIC (Streptococcus pneumoniae [2]): 1 µg/mL (≈ 2.34 µM)
- MIC (Streptococcus pneumoniae [3]): > 16 µg/mL

Structure (SMILES): CSc1nnc(SC2=C(C(=O)O)N3C(=O)[C@@H](NC(=O)[C@H](N)c4ccccc4)[C@H]3CC2)s1
- MIC (Streptococcus pneumoniae [1]): 0.06 µg/mL (≈ 0.126 µM)
- MIC (Streptococcus pneumoniae [2]): < 0.03 µg/mL
- MIC (Streptococcus pneumoniae [3]): 0.25 µg/mL (≈ 0.523 µM)

Structure (SMILES): N[C@@H](C(=O)N[C@@H]1C(=O)N2C(C(=O)O)=C(Sc3ccccc3)CC[C@H]12)c1ccccc1
- MIC (Streptococcus pneumoniae [1]): 1 µg/mL (≈ 2.36 µM)
- MIC (Streptococcus pneumoniae [2]): 0.06 µg/mL (≈ 0.142 µM)
- MIC (Streptococcus pneumoniae [3]): 4 µg/mL (≈ 9.45 µM)

Structure (SMILES): N[C@@H](C(=O)N[C@@H]1C(=O)N2C(C(=O)O)=C(Sc3nnc(SCC4CC4)s3)CC[C@H]12)c1ccccc1
- MIC (Streptococcus pneumoniae [1]): 0.06 µg/mL (≈ 0.116 µM)
- MIC (Streptococcus pneumoniae [2]): < 0.03 µg/mL
- MIC (Streptococcus pneumoniae [3]): 0.25 µg/mL (≈ 0.483 µM)

Structure (SMILES): N[C@@H](C(=O)N[C@@H]1C(=O)N2C(C(=O)O)=C(Sc3nc4ccccc4s3)CC[C@H]12)c1ccccc1
- MIC (Streptococcus pneumoniae [1]): 4 µg/mL (≈ 8.32 µM)
- MIC (Streptococcus pneumoniae [2]): 0.5 µg/mL (≈ 1.04 µM)
- MIC (Streptococcus pneumoniae [3]): 8 µg/mL (≈ 16.6 µM)

Structure (SMILES): C[n+]1ccc(SC2=C(C(=O)[O-])N3C(=O)[C@@H](NC(=O)[C@H](N)c4ccccc4)[C@H]3CC2)cc1
- MIC (Streptococcus pneumoniae [1]): 1 µg/mL (≈ 2.28 µM)
- MIC (Streptococcus pneumoniae [2]): 0.25 µg/mL (≈ 0.57 µM)
- MIC (Streptococcus pneumoniae [3]): 4 µg/mL (≈ 9.12 µM)

Structure (SMILES): N[C@@H](C(=O)N[C@@H]1C(=O)N2C(C(=O)O)=C(Sc3ccccn3)CC[C@H]12)c1ccccc1
- MIC (Streptococcus pneumoniae [1]): 1 µg/mL (≈ 2.36 µM)
- MIC (Streptococcus pneumoniae [2]): 0.06 µg/mL (≈ 0.141 µM)
- MIC (Streptococcus pneumoniae [3]): 2 µg/mL (≈ 4.71 µM)

Structure (SMILES): N[C@@H](C(=O)N[C@@H]1C(=O)N2C(C(=O)O)=C(Sc3ccccc3Br)CC[C@H]12)c1ccccc1
- MIC (Streptococcus pneumoniae [1]): 0.25 µg/mL (≈ 0.498 µM)
- MIC (Streptococcus pneumoniae [2]): 0.06 µg/mL (≈ 0.119 µM)
- MIC (Streptococcus pneumoniae [3]): 2 µg/mL (≈ 3.98 µM)

Structure (SMILES): CSC1=C(C(=O)O)N2C(=O)[C@@H](NC(=O)[C@H](N)c3ccccc3)[C@H]2CC1
- MIC (Streptococcus pneumoniae [1]): 8 µg/mL (≈ 22.1 µM)
- MIC (Streptococcus pneumoniae [2]): 1 µg/mL (≈ 2.77 µM)
- MIC (Streptococcus pneumoniae [3]): > 16 µg/mL

Structure (SMILES): CCSc1nnc(SC2=C(C(=O)O)N3C(=O)[C@@H](NC(=O)[C@H](N)c4ccccc4)[C@H]3CC2)s1
- MIC (Streptococcus pneumoniae [1]): 0.25 µg/mL (≈ 0.509 µM)
- MIC (Streptococcus pneumoniae [2]): 0.03 µg/mL (≈ 0.061 µM)
- MIC (Streptococcus pneumoniae [3]): 0.5 µg/mL (≈ 1.02 µM)

Structure (SMILES): N[C@@H](C(=O)N[C@@H]1C(=O)N2C(C(=O)O)=C(Sc3nccs3)CC[C@H]12)c1ccccc1
- MIC (Streptococcus pneumoniae [1]): 2 µg/mL (≈ 4.65 µM)
- MIC (Streptococcus pneumoniae [2]): 0.12 µg/mL (≈ 0.279 µM)
- MIC (Streptococcus pneumoniae [3]): 4 µg/mL (≈ 9.29 µM)

Structure (SMILES): N[C@@H](C(=O)N[C@@H]1C(=O)N2C(C(=O)O)=C(Sc3cccs3)CC[C@H]12)c1ccccc1
- MIC (Streptococcus pneumoniae [1]): 2 µg/mL (≈ 4.66 µM)
- MIC (Streptococcus pneumoniae [2]): 0.25 µg/mL (≈ 0.582 µM)
- MIC (Streptococcus pneumoniae [3]): 16 µg/mL (≈ 37.3 µM)

Structure (SMILES): N[C@@H](C(=O)N[C@@H]1C(=O)N2C(C(=O)O)=C(Sc3nncs3)CC[C@H]12)c1ccccc1
- MIC (Streptococcus pneumoniae [1]): 0.25 µg/mL (≈ 0.579 µM)
- MIC (Streptococcus pneumoniae [2]): 0.06 µg/mL (≈ 0.139 µM)
- MIC (Streptococcus pneumoniae [3]): 1 µg/mL (≈ 2.32 µM)

Structure (SMILES): N[C@@H](C(=O)N[C@@H]1C(=O)N2C(C(=O)O)=C(Sc3ncccn3)CC[C@H]12)c1ccccc1
- MIC (Streptococcus pneumoniae [1]): 0.5 µg/mL (≈ 1.18 µM)
- MIC (Streptococcus pneumoniae [2]): 0.12 µg/mL (≈ 0.282 µM)
- MIC (Streptococcus pneumoniae [3]): 4 µg/mL (≈ 9.4 µM)

Structure (SMILES): N[C@@H](C(=O)N[C@@H]1C(=O)N2C(C(=O)O)=C(Sc3cnns3)CC[C@H]12)c1ccccc1
- MIC (Streptococcus pneumoniae [1]): 0.25 µg/mL (≈ 0.579 µM)
- MIC (Streptococcus pneumoniae [2]): 0.06 µg/mL (≈ 0.139 µM)
- MIC (Streptococcus pneumoniae [3]): 1 µg/mL (≈ 2.32 µM)

Structure (SMILES): Cc1nnc(SC2=C(C(=O)O)N3C(=O)[C@@H](NC(=O)[C@H](N)c4ccccc4)[C@H]3CC2)s1
- MIC (Streptococcus pneumoniae [1]): 1 µg/mL (≈ 2.24 µM)
- MIC (Streptococcus pneumoniae [2]): 0.03 µg/mL (≈ 0.0673 µM)
- MIC (Streptococcus pneumoniae [3]): 1 µg/mL (≈ 2.24 µM)

Structure (SMILES): N=C(N)SCc1ccccc1SC1=C(C(=O)O)N2C(=O)[C@@H](NC(=O)[C@H](N)c3ccccc3)[C@H]2CC1
- MIC (Streptococcus pneumoniae [1]): 0.25 µg/mL (≈ 0.489 µM)
- MIC (Streptococcus pneumoniae [2]): 0.02 µg/mL (≈ 0.0391 µM)
- MIC (Streptococcus pneumoniae [3]): 0.5 µg/mL (≈ 0.977 µM)

Structure (SMILES): N[C@@H](C(=O)N[C@@H]1C(=O)N2C(C(=O)O)=C(Cl)CC[C@H]12)c1ccccc1 [LORACARBEF ANHYDROUS]
- MIC (Streptococcus pneumoniae [1]): 8 µg/mL (≈ 22.9 µM)
- MIC (Streptococcus pneumoniae [2]): 2 µg/mL (≈ 5.72 µM)
- MIC (Streptococcus pneumoniae [3]): > 16 µg/mL

Structure (SMILES): Cn1cnnc1SC1=C(C(=O)O)N2C(=O)[C@@H](NC(=O)[C@H](N)c3ccccc3)[C@H]2CC1
- MIC (Streptococcus pneumoniae [1]): 4 µg/mL (≈ 9.34 µM)
- MIC (Streptococcus pneumoniae [2]): 0.5 µg/mL (≈ 1.17 µM)
- MIC (Streptococcus pneumoniae [3]): > 16 µg/mL
